Measurements: PMC10508264, “Exploring the antioxidant, antimicrobial, cytotoxic and biothermodynamic properties of novel morpholine derivative bioactive Mn(II), Co(II) and Ni(II) complexes – combined experimental and theoretical measurements towards DNA/BSA/SARS-CoV-2 3CL^Pro” (RSC Medicinal Chemistry, 2023)

Columns and labels:
[1] = tested on: DNA; assay: DNA cleavage by gel electrophoresis under H2O2; format: biochemical; details: H2O2 environment
From the text: In a cellular system, DNA base pairs can be broken by a variety of mechanisms, including errors in DNA replication, generation of a heteroduplex during homologous recombination, spontaneous deamination of cytosine, and base pairs broken by mutagens or ionizing radiation, which also lead to improper base pairing and mutations. Also, metal complexes have the capability of recognizing DNA mismatches and may become vital entities for investigation and possibly for clinical applications.[55] Moreover, the cleavage of one or both DNA strands is a typical and essential process for maintaining cell viability: during DNA replication and transcription, topoisomerase enzymes correct topological issues, and various nucleases take part in repair mechanisms and DNA degradation, which is one of the distinguishing features of apoptotic programmed cell death. Similarly, several antitumor drugs have the potential to cleave DNA by inducing apoptosis, which eventually leads to cancer cell death. Conversely, molecules that can interact with DNA's major or minor grooves are known as groove-binding molecules, which disrupt and impair the function of the DNA double helix via various non-covalent interactions. The DNA nuclease properties of all samples were assessed in an H2O2 environment by the gel electrophoresis method. DNA cleavage was monitored during the conversion of supercoiled plasmids into linear and nicked DNA fragments. Also, the observed DNA nuclease efficacy for all complexes (1–3) was compared with the free ligand (HL) and CT-DNA alone. No substantial nuclease activity can be seen in the control (Fig. 1 and S13 ^†) (lane 1; DNA + H2O2) even after a lot of time has passed, and free ligand (HL) (lane 2) was monitored as immobile in an H2O2 environment. […] Consequently, it is commonly acknowledged that ROS plays a dual physiological role in controlling a variety of illnesses as well as cellular homeostasis (self-regulating processes like thermoregulation, blood glucose regulation, calcium/potassium homeostasis, and osmoregulation).[56] […] Additionally, it is widely known that the NADPH oxidase enzyme produces reactive oxygen species as part of its antibacterial effect on phagocytic cells. Nevertheless, these types of enzyme seem to be present in a variety of other cells and may have significant signalling pathway functions. When non-carcinogenic toxicity events occur, ROS has the ability to alter cell function as well as to affect the genesis of cancer at several levels. OH˙ can attack DNA, proteins, and lipids due to its high reactivity among ROS. Also, the hydroxyl radical is a key participant in free-radical-mediated hazardous reactions because of its great reactivity. […]

[2] = target: BSA (Bos taurus, UniProt P02769); format: binding, bovine; details: for Δλ (nm), blue shift of BSA band: 25 μM BSA, compound 0–25 μM; for Binding constant Kapp by BH method (Kb, BSA): 25 °C; for Gibb's free energy change of BSA binding: T = 298 K
[3] = tested on: Salmonella enterica serovar typhi; assay: Agar disc diffusion, strain B; format: cell-based; details: for Diameter of clear zone inhibition: control 6 mm
[4] = tested on: Bacillus cereu; assay: Agar disc diffusion, strain G; format: cell-based; set-up: Inhibition%: concentration or dose not given beside the values; details: for Diameter of clear zone inhibition: control 6 mm
[5] = Superoxide scavenging assay; details: for % Inhibition, superoxide: 590 nm; for IC50: read-out: IC50, superoxide

[Mn+2].[O-]c1ccccc1N=Cc1ccc(N2CCOCC2)cc1.[O-]c1ccccc1N=Cc1ccc(N2CCOCC2)cc1.c1ccc(-c2ccccn2)nc1 [(1)]
DNA cleavage [1]: no considerable cleavage efficiency
Δλ (nm), blue shift of BSA band [2]: 03 nm
Binding constant Kapp by BH method (Kb, BSA) [2]: 12429 M⁻¹
Gibb's free energy change of BSA binding [2]: -5.5827 kcal/mol
Inhibition% [3]: 50%
Diameter of clear zone inhibition [3]: 12 mm
Inhibition% [4]: 57%
Diameter of clear zone inhibition [4]: 14 mm
% Inhibition, superoxide ([5]; 40 µM): 06.85%
% Inhibition, superoxide ([5]; 80 µM): 13.32%
% Inhibition, superoxide ([5]; 120 µM): 22.56%
% Inhibition, superoxide ([5]; 160 µM): 36.63%
% Inhibition, superoxide ([5]; 200 µM): 45.42%
% Inhibition, superoxide ([5]; 240 µM): 54.12%

[Co+2].[O-]c1ccccc1N=Cc1ccc(N2CCOCC2)cc1.[O-]c1ccccc1N=Cc1ccc(N2CCOCC2)cc1.c1ccc(-c2ccccn2)nc1 [(2)]
DNA cleavage [1]: complete DNA cleavage
Δλ (nm), blue shift of BSA band [2]: 02 nm
Binding constant Kapp by BH method (Kb, BSA) [2]: 30937 M⁻¹
Gibb's free energy change of BSA binding [2]: -6.12271 kcal/mol
Inhibition% [3]: 40%
Diameter of clear zone inhibition [3]: 10 mm
Inhibition% [4]: 54%
Diameter of clear zone inhibition [4]: 13 mm
% Inhibition, superoxide ([5]; 40 µM): 07.02%
% Inhibition, superoxide ([5]; 80 µM): 11.73%
% Inhibition, superoxide ([5]; 120 µM): 25.81%
% Inhibition, superoxide ([5]; 160 µM): 43.12%
% Inhibition, superoxide ([5]; 200 µM): 54.42%
% Inhibition, superoxide ([5]; 240 µM): 62.24%
IC50 [5]: 200 µM

[Ni+2].[O-]c1ccccc1N=Cc1ccc(N2CCOCC2)cc1.[O-]c1ccccc1N=Cc1ccc(N2CCOCC2)cc1.c1ccc(-c2ccccn2)nc1 [(3)]
DNA cleavage [1]: partial DNA cleavage
Δλ (nm), blue shift of BSA band [2]: 02 nm
Binding constant Kapp by BH method (Kb, BSA) [2]: 18374 M⁻¹
Gibb's free energy change of BSA binding [2]: -5.81417 kcal/mol
Inhibition% [3]: 40%
Diameter of clear zone inhibition [3]: 10 mm
Inhibition% [4]: 54%
Diameter of clear zone inhibition [4]: 13 mm
% Inhibition, superoxide ([5]; 40 µM): 06.27%
% Inhibition, superoxide ([5]; 80 µM): 12.17%
% Inhibition, superoxide ([5]; 120 µM): 24.31%
% Inhibition, superoxide ([5]; 160 µM): 40.01%
% Inhibition, superoxide ([5]; 200 µM): 50.78%
% Inhibition, superoxide ([5]; 240 µM): 58.83%
IC50 [5]: 200 µM

Oc1ccccc1N=Cc1ccc(N2CCOCC2)cc1 [(HL), 2-(4-morpholinobenzylideneamino)phenol]
DNA cleavage [1]: immobile
Δλ (nm), blue shift of BSA band [2]: 02 nm
Binding constant Kapp by BH method (Kb, BSA) [2]: 7556 M⁻¹
Gibb's free energy change of BSA binding [2]: -5.28791 kcal/mol
Inhibition% [3]: 33%
Diameter of clear zone inhibition [3]: 09 mm
Inhibition% [4]: 33%
Diameter of clear zone inhibition [4]: 09 mm
% Inhibition, superoxide ([5]; 40 µM): 05.23%
% Inhibition, superoxide ([5]; 80 µM): 10.74%
% Inhibition, superoxide ([5]; 120 µM): 18.85%
% Inhibition, superoxide ([5]; 160 µM): 33.55%
% Inhibition, superoxide ([5]; 200 µM): 40.91%
% Inhibition, superoxide ([5]; 240 µM): 50.42%
